Measured values reported in patent US5401724A, “Therapeutic treatment of chronic myelogenous leukemia by administration of 2-chloro-2'-deoxy adenosine” (priority 1994, dated 1995).

Key:
[1] = system: chronic myelogenous leukemia; experiment: Hematological remission in patients with stable phase CML treated with 2-CdA (Example 1); format: in vivo, human
Procedure: (§1) Each course was repeated every 28 days until the maximum hematological remission response of the treatment was achieved. The median age of the patients was 60 years, with a range of 52 to 75 years. There were 3 males and 2 females. A median of 2 courses of treatment was administered, with a range of 1 to 4 courses.
The median follow-up was 3.2 months, with a range from 1.0 to 5.7 months.

[2] = system: total circulating peripheral blood granulocytes; experiment: Effect of 2-CdA on total circulating peripheral blood granulocytes in a patient with CML (Example 2); format: in vivo, human
Procedure: as §1

granulocytes [3] = experiment: Effects of 2-CdA on granulocyte counts in two non-CML (multiple sclerosis) patients (Example 3); format: in vivo, human
From the text: Those results are illustrated and discussed hereinafter in Example 3.
Granulocyte counts were obtained from two patients who were receiving 2-CdA in the treatment of a non-leukemic disease, multiple sclerosis. These patients therefore had normal granulocytes.

[4] = system: delayed-type hypersensitivity; experiment: Oral and IP effects on delayed-type hypersensitivity (DTH) to ovalbumin (Example 5, first study); format: in vivo, guinea pig
Procedure: (§2) Delayed-type hypersensitivity (DTH) is a cell-mediated immune response that typically takes longer than 12 hours to develop. In the guinea pig, a DTH reaction to an antigen can be established by first immunizing the animal with the antigen in an adjuvant such as Freund's complete adjuvant. Subsequent intradermal injection of the antigen causes no change for at least 10 hours, after which there is a gradual increase in erythema and swelling in response to antigen injection. This response peaks about at about 24 hours after challenge, then gradually subsides.
(§3) Histologically, the inflammatory response is characterized by intense inundation of the site with mononuclear cells, of which about half are lymphocytes and the other half monocytes. DTH is therefore an indicator of a monocyte-mediated immune reaction.
In one study, guinea pigs were sensitized to ovalbumin in adjuvant. […] The animals were then injected with ovalbumin intradermally to elicit the DTH response. The mean area of the swelling size was measured for each animal (nine or ten animals were treated for each protocol).

[5] = system: delayed-type hypersensitivity; experiment: Effects of different dosages of 2-CdA on DTH to ovalbumin (Example 5, second study); format: in vivo, guinea pig; conditions: for inhibition of swelling compared to saline control: 24 and 48 hours post-challenge, p <0.01 by Student's t-test
Procedure: as §2, §3
Three days after treatment, the animals were challenged with ovalbumin intradermally. The areas of the skin lesions were measured at 6, 24, and 48 hours after challenge.

CEM, wild type = experiment: cells; conditions: Homo sapiens, 120 h, read-out: ID50
From the text: (§4) ^1 Concentration that produced 50 percent reduction in all numbers

[6] = system: CEM, deoxyeytidine kinase deficient; experiment: cells; conditions: Homo sapiens, 120 h, read-out: ID50
From the text: as §4

[7] = system: CEM, Increased 5'-nucleoside; experiment: cells; conditions: Homo sapiens, 120 h, read-out: ID50
From the text: as §4

[8] = system: DHL9, Increased ribonucleotide reduction; experiment: cells; conditions: Homo sapiens, 120 h, read-out: ID50
From the text: as §4

[9] = system: Peripheral blood lymphocytes; experiment: cells; conditions: Homo sapiens, Lymphocyte, 120 h, read-out: ID50
From the text: as §4

Monocytes = experiment: cells; conditions: Homo sapiens, Monocyte, 120 h, read-out: ID50
From the text: as §4

CFU-GM cells = conditions: 100 nM; cited from earlier work
CML in blast crisis = conditions: Phase I, cited from earlier work
neutrophils = conditions: chronic lymphocytic leukemia; serum levels less than 10 nM; in most cases; cited from earlier work
granulocytes [10] = conditions: hairy cell leukemia, cited from earlier work
[11] = system: Primitive burst-forming unit-erythroid (pBFU-E) cells; conditions: read-out: IC50 (concentration required to inhibit 50 percent of growth); cited from earlier work
[12] = system: Mature BFU-E (mBFU-E) cells; conditions: read-out: IC50 (concentration required to inhibit 50 percent of growth); cited from earlier work
[13] = system: colony forming unit-erythroid (CFU-E) cells; conditions: read-out: IC50 (concentration required to inhibit 50 percent of growth); cited from earlier work
[14] = system: Colony forming unit-granulocyte macrophage (CFU-GM) cells; conditions: read-out: IC50 (concentration required to inhibit 50 percent of growth); cited from earlier work

Nc1nc(Cl)nc2c1ncn2[C@H]1C[C@H](O)[C@@H](CO)O1 [2-CdA, 2-chloro-2'-deoxyadenosine]
toxicity attributable to 2-CdA ([1]; 0.1 mg/kg per day continuous i.v. infusion for 7 days, 1 to 4 courses): No toxicity attributable to 2-CdA was encountered
hematological remission upon follow-up, Patient 4 ([1]; 1 course, prior hydroxyurea and α-interferon, follow-up 1.5 months): complete hematological remission
hematological remission upon follow-up, Patient 5 ([1]; 2 courses, prior hydroxyurea, follow-up 1.0 months): complete hematological remission
hematological remission upon follow-up, Patient 2 ([1]; 2 courses, prior hydroxyurea, follow-up 3.0 months): complete hematological remission
hematological remission upon follow-up, Patient 3 ([1]; 3 courses, prior hydroxyurea and α-interferon, follow-up 3.2 months): complete hematological remission
hematological remission upon follow-up, Patient 1 ([1]; 4 courses, prior hydroxyurea, follow-up 5.7 months): complete hematological remission
complete hematological remissions (normalization of peripheral leukocyte counts, platelet counts, and resolution of splenomegaly) ([1]; 5 patients, 0.1 mg/kg per day continuous i.v. infusion for 7 days, repeated every 28 days, median 2 courses): All five patients obtained complete hematological remissions
median follow-up (all patients continuing in hematologic remission) ([1]; 5 patients, range 1.0 to 5.7 months): 3.2 months
Philadelphia chromosome at follow-up ([1]; all patients): persistence of the Philadelphia chromosome
hematologic remission at follow-up, all patients ([1]; median follow-up 3.2 months): All patients continue to be in hematologic remission
granulocyte count ([2]; second course, day 5): 27,724 /μl
decrease from the granulocyte count at day zero ([2]; second course, day 13): > 99%
granulocyte count ([2]; second course, day 13): 210 µL⁻¹
granulocyte count ([2]; second course, day 17): 690 µL⁻¹
granulocyte count ([2]; second course, day zero (start of therapy)): 34,831 /μl
granulocyte count ([2]; third course, day 5, unit not given): 5,676 /μl
decrease from the initial granulocyte level ([2]; third course, day 14): approximately 98%
granulocyte count ([2]; third course, day 14, unit not given): 270 µL⁻¹
lower than the initial granulocyte count ([2]; third course, day 17): 95%
granulocyte count ([2]; third course, day 17, unit not given): 525 µL⁻¹
granulocyte count ([2]; third course, day zero, unit not given): 11,060 /μl
granulocyte counts after several courses (granulocytes [3]; multiple sclerosis patients, about 0.1 mg/kg/day, seven day continuous infusion): substantially unchanged
effect on the granulocyte count (granulocytes [3]; two multiple sclerosis patients): did not affect the granulocyte count
inhibition of swelling compared to control animals ([4]; 1 mg/kg, intraperitoneal, p <0.01 by Student's t-test): significant inhibition of swelling
effect on DTH swelling, oral route ([4]; 1 mg/kg, oral, without enteric coating): ineffective
effectiveness when given orally ([4]; oral, without the protection of an enteric coating (2-CdA), preliminary in vivo studies): ineffective
inhibition of swelling compared to saline control ([5]; 0.1 mg/kg): effective at inhibiting swelling
inhibition of swelling compared to saline control ([5]; 1 mg/kg): effective at inhibiting swelling
areas of swelling, 0.1 vs 1.0 mg/kg ([5]; 0.1 and 1.0 mg/kg): substantially the same
areas of swelling compared to dexamethasone-treated animals ([5]; 0.1 and 1.0 mg/kg 2-CdA vs dexamethasone 5 mg/kg): slightly less than the value obtained with dexamethasone
IC50 (CEM, wild type): 21 nM
IC50 [6]: 716000 nM
IC50 [7]: 60 nM
IC50 [8]: 4000 nM
IC50 [9]: 15 nM
IC50 (Monocytes): 22 nM
reduction of CFU-GM growth (CFU-GM cells): 60%
detectable tumor (CML in blast crisis; another of two patients): loss of detectable tumor in another patient
blast count (CML in blast crisis; one of two patients): decrease in blast count in one patient
neutrophil count (neutrophils): increase in neutrophil count
neutropenia (granulocytes [10]): transient neutropenia
granulocyte counts (granulocytes [10]; transient): under 500 per microliter
IC50 [11]: 19 nM
IC50 [12]: 38 nM
IC50 [13]: 56 nM
IC50 [14]: 16 nM
